Consider one compound from patent US20260166033A1, “USE OF A FGFR3 TYROSINE KINASE INHIBITOR FOR THE TREATMENT OF FGFR-RELATED BONE REPAIR AND BONE FORMATION IMPAIRMENTS” (INSTITUT NATIONAL DE LA SANTÉ ET DE LA RECHERCHE MÉDICALE, priority 2021, published 2026).

The test system of one assay is HCH mice (Fgfr3^N534K/+). The assay can be described thus: Non-stabilized mandibular fracture bone repair in the HCH mouse model, microCT scans and repair grade. Type of assay: in vivo. Here is the method: Mandibular bone repair was studied in the HCH mouse model (Fgfr3^N534K/+). The experiments were performed in adult animals at 6 weeks of age, and mice were euthanized at 4 key points: during bone repair (10, 14, 21 days post fracture), and at the end of the normal bone healing process i.e. at 28 days post fracture.
Vertical mandibular fractures were performed in the ascending ramus region in Fgfr3^N534K/+ and Fgfr3^+/+ mice. This is a non-stabilized mandibular fracture protocol allowing to analyze the endochondral bone repair process.
Four batches (n=100) of Fgfr3^N534K/+ and Fgfr3^+/+ mandible fractures corresponding to different key stages of repair were studied (day 10, day 14, day 21, day 28). Using collagen type II (proliferative cartilage), type X (hypertrophic cartilage) and type I (bone) immunolabelling, we observed that the endochondral process is disturbed, we noted a delayed cartilage resorption, a reduction in the size of hypertrophic chondrocytes area and a defect in bone formation within the repair callus in Fgfr3^N534K/+ compared to Fgfr3^+/+. […] We observed the presence of pseudarthrosis (fibrosis in the callus) in Fgfr3^N534K/+ mice whereas we observed 100% of bone in Fgfr3^+/+ callus. Considering the quality of the newly formed bone at day 28, we defined four grades of repair and classified the mice according to their repair grade (from 1 to 4). The defective repair is significant in Fgfr3^N534K/+ compared to Fgfr3^+/+ (FIG. 1C).
HCH mice (Fgfr3^N534K/+) were treated with infigratinib (subcutaneous injections at 4 mg/kg, 3 times per week) from day 0 (facture of the mandible) to day 14 or day 28. The bone repair analyses were evaluated by microCT scans at day 14 and day 28 post fracture (FIGS. 1A and 1B). We quantified BV/TV (Bone Volume/Total Volume) and Callus volume (ratio TV (total volume) of the callus/TV of the contralateral ascending ramus region).

In assay [1] the test system is mouse model of ACH (Fgfr3Y367C/+). The settings on record: Fgfr3Y367C/+ mice; Komla Ebri et al 2016, Biosse Duplan et al 2016; cited from earlier work.
Setting [2] is: day 28 grade repair, treated Fgfr3^N534K/+ mice.

For `CCN1CCN(c2ccc(Nc3cc(N(C)C(=O)Nc4c(Cl)c(OC)cc(OC)c4Cl)ncn3)cc2)CC1` [BGJ398, 3-(2,6-dichloro-3,5-dimethoxyphenyl)-1-[6-[4-(4-ethylpiperazin-1-yl)anilino]pyrimidin-4-yl]-1-methylurea], in the assay on HCH mice (Fgfr3^N534K/+) (HCH mandible, non-stabilized fracture), the “Effect on defective bone reparation of the callus (summary in words)” value was “partially restore the defective bone reparation of the callus, increases the bone volume/total volume without pseudarthrosis”. Also, the “Callus volume (ratio TV of the callus/TV of the contralateral ascending ramus region), treated vs untreated HCH mice” value in the assay on HCH mice (Fgfr3^N534K/+) (day 14 post fracture, subcutaneous 4 mg/kg, 3 times per week from day 0, microCT) is “unchanged”. Also, the “BV/TV (Bone Volume/Total Volume), change in treated vs untreated HCH mice” value is “+20.8%” in the assay on HCH mice (Fgfr3^N534K/+) (day 14 post fracture, subcutaneous 4 mg/kg, 3 times per week from day 0, microCT, p<0.05) and “+17.8%” in the assay with HCH mice (Fgfr3^N534K/+) (day 28 post fracture, subcutaneous 4 mg/kg, 3 times per week from day 0, microCT, p<0.01). Moreover, the “Complete bone healing (grade 1), mice with this repair grade” value with HCH mice (Fgfr3^N534K/+) (setting [2]) is on record as 7/10. The “Restoration of bone continuity, but presence of mild bone defects (grade 2), mice with this repair grade” value in the assay on HCH mice (Fgfr3^N534K/+) (setting [2]) is on record as 3/10. Also, in the assay on HCH mice (Fgfr3^N534K/+) (day 28 post fracture, subcutaneous 4 mg/kg, 3 times per week from day 0, microCT, p<0.0001), the “Callus volume, change in treated vs untreated HCH mice” value is −38.6%. In assay [1], the “Effect on affected skeletal elements (long bones, vertebrae, intervertebral discs, craniofacial morphology, foramen magnum)” value is “improvement of many of the affected skeletal elements in ACH”.
